This note sets out measurements from article PMC9738927, “A Newly Identified Monoterpenoid-Based Small Molecule Able to Support the Survival of Primary Cultured Dopamine Neurons and Alleviate MPTP-Induced Toxicity In Vivo” (Molecules, 2022).

The subject of data set [1] is naïve primary midbrain dopamine neurons. As to the kind of experiment: Survival of naïve cultured dopamine neurons (TH-positive cell count). Type of data set: cell-based, mouse. The protocol: We developed a compound library containing 20 diol derivatives and screened them on cultured primary DA neurons (Supplementary Materials, Table S1). Compounds were taken at a dose of 0.1 and 1 μM (based on effective doses for the epoxydiol). Based on the screening results, we selected four compounds and tested them in a naïve and MPP^+-treated (1-methyl-4-phenylpyridinium (MPP^+), the neurotoxic metabolite of MPTP) DA culture at 1, 10, and 100 nM to select the compound with the lowest effective dose.
The survival of cultured mouse DA neurons was assessed as described before. Briefly, naïve or MPP^+ (dopaminergic selective neurotoxin)-challenged embryonic midbrain neurons were cultured in the presence or absence of a diol-like compound. The number of survived DA neurons was estimated after immunocytochemical staining with antibodies recognizing the key enzyme of dopamine synthesis—tyrosine hydroxylase.

The nature of data set [2]: Pharmacokinetics in brain tissue after a single oral dose (HPLC-MS/MS). Type of data set: in vivo, CD1 IGS mice. As to conditions: single oral 10 mg/kg. The protocol: CD1 IGS mice received a single oral dose of PA96 in Tween 80 (10 mg/kg). Mice were sacrificed 5, 10, 30, 60, and 120 min after injection, and all brain samples were collected and placed into an Eppendorf microtube (2 mL). Samples were frozen with liquid nitrogen for subsequent preparation and HPLC-MS/MS analysis. A set of calibrators were prepared, followed by their preparation protocol, and analyzed. The calibration curve was built in the interval of 1–100 ng/g and used to calculate the PA96 concentration in the brain tissue samples.
A stock solution was prepared by dissolving approximately 10 mg of PA96 in a required amount of pure methanol to have the solution with a concentration of 1.0 mg/mL. The working solutions of PA96 with concentrations of 5, 7.5, 25, 50, 75, 250, and 300 ng/mL were prepared by diluting the stock solution with methanol. To prepare a calibrator, a free PA96 brain tissue (~50 mg) was weighed and transferred into an Eppendorf microtube (V = 1.5 mL), then the working solution of PA-96 was added. The mixture was homogenized (Minilys, Bertin Technologies, Montigny-leBretonneux, France) for 60 s at low speed. The calibrators were prepared on the day of the experiment. The working solution of IS in acetonitrile with a concentration of 1.0 mg/mL was used. All the solutions were stored at −18 °C. Before sample preparation, the solutions were brought to room temperature.
The exact amount (~50 mg) of the mouse brain tissue sample was transferred into a polypropylene tube (1.5 mL). For each portion, the solution of IS (1 µL per 1 mg of the brain sample) and pure acetonitrile (10 µL per 1 mg of the brain sample) were added, then all samples were homogenized for 4 min at medium speed. After the homogenization procedure, ~100 mg of the salt mixture (magnesium sulfate: sodium chloride: trisodium citrate: disodium citrate as 4:1:1:0.5) for extraction was added, followed by shaking for 30 min at 1400 rpm in an orbital shaker. The supernatant was separated from the homogenate by centrifugation for 10 min at 13,400 rpm. The obtained solution was further shaken with ~80 mg of the SPE mixture (magnesium sulfate:C18EC as 6:1 and acetonitrile) for 10 min at 1400 rpm and centrifuged for 10 min at 13,400 rpm. A total of 300 µL of the organic phase was placed into a fresh tube and evaporated to dryness in a vacuum. The residue containing the analyte and IS was dissolved in 150 μL of methanol, shaken for 10 min, transferred into a chromatographic vial, and analyzed by HPLC-MS/MS.
The LC-MS/MS analysis was performed using an LC-20AD Prominence chromatograph equipped with an autosampler thermostated at +10 °C (Shimadzu, Japan) and a 3200 QTRAP mass spectrometer equipped with an ESI source (AB SCIEX, USA). Separation was achieved on a ProntoSil-120-5-C18 AQ column (2.0 × 75 mm, 5 μm particles, (EcoNova, Novosibirsk, Russia)) thermostated at +35 °C. The mobile phase was composed of water containing 0.1% formic acid (eluent A) and methanol containing 0.1% formic acid (eluent B). The gradient elution program was as follows: 0 min-10% (B); 0.5 min-10% (B); 7 min-98% (B); 9 min-98% (B); the flow rate was 200 μL/min.
The mass spectrometer was operated using multiple reaction monitoring (MRM) in positive ion mode. Ionization was conducted by applying a voltage of 5500 V, and the source temperature was set at +350 °C. For the analyte and IS, the optimized source parameters, viz. CUR (curtain gas), GS1 (Gas 1), and GS2 (Gas 2) were set at 20 psi. The CAD (collisionally activated dissociation) gas was nitrogen, and the parameter was set as high. The parameters of PA96, viz. MRM transitions, declustering potentials (DP), collision energies (CE), and collision cell exit potentials (CXP) are presented in Table 3. The dwell time was 100 msec. Analyst 1.6.2 software (AB SCIEX, USA) was used for instrument control and data acquisition, and MultiQuant 2.1 software (AB SCIEX, USA) was used for quantification. […]

Where “and” joins values, the source holds several entries; their conditions need not be identical. Identical values can stand only once.

What is called Cmax is the maximum level reached in the sampled fluid or tissue. The Tmax is the time from dosing to the highest level. A word on the half-life: it is the time in which the quantity being followed falls by half. The low end stands for fast loss, the high end for slow loss. Consider `C=C(C)[C@@H]1CC=C(C)[C@@H](Sc2nc[nH]n2)[C@@H]1O` [PA96, (1R,2R,6S)-2-(1H-1,2,4-triazol-3-ylthio)-3-methyl-6-(prop-1-en-2-yl)cyclohex-3-enol], for which, in data set [1] (PA96 vs epoxydiol), the “potency relative to epoxydiol in the survival assay” value is recorded as “up to 100 times”. Besides, the “effective concentration in survival assay for DA neurons” value in data set [1] (cultured DA neurons) was 1 nM and 1−10 nM. Besides, the “cytotoxicity in in vitro experiments” value in data set [1] (naive neurons and with MPP+) is given as “neither cytotoxic effect in naive neurons nor increased cytotoxicity”. In addition, the “number of TH-positive neurons greater than in vehicle-treated wells” value in data set [1] (naïve neurons, 1 nM, p = 0.04) was 40%. Further, the Kp in data set [2] (CD1 IGS, mouse, brain and whole blood, read-out: Kb,brain (brain-to-blood coefficient, AUCbrain/AUCblood)) is 0.119 ± 0.01. For the same molecule, in data set [2] (CD1 IGS, mouse, brain), the Cmax stood at 125 ng/g, the Tmax was 5 min and the half-life was 18.8 ± 0.3 min. For the same molecule, the MRT inf in data set [2] (CD1 IGS, mouse, brain, read-out: MRT0-inf_obs (converted)) was 21.5 min. Moreover, the “concentration in blood higher than in brain tissue” value in data set [2] (at 5 min) is given as “approximately 4.5 times”. For the same molecule, in data set [2] (brain), the AUC0-inf_obs entry is “(2.03 ± 0.09) × 10^3 ng/g∗min” and the AUC0-t result was “(1.99 ± 0.09) × 10^3 ng/g∗min”. In data set [2], the “time at which the concentration in brain was close to the minimum value” is 2 h.
